Source: article PMC7551059, “Bioactive Bianthraquinones and Meroterpenoids from a Marine-Derived Stemphylium sp. Fungus” (Marine Drugs, 2020)
Where two headings read alike, the source gives them in different places.

System: lipopolysaccharide (LPS)-induced nitric oxide (NO) production in RAW 264.7 mouse macrophages
Test: LPS-induced NO (nitrite) production in RAW 264.7 cells, Griess reagent
Type: cell-based
Conditions: for IC50: Mus musculus
Procedure: A RAW 264.7 murine macrophage cell line was purchased from American Type Cell Culture (Rockville, MD, USA). Cells were cultured in DMEM with 10% fetal bovine serum and antibiotic−antimycotics (i.e., penicillin G sodium, 100 units/mL; streptomycin, 100 μg/mL; amphotericin B, 250 ng/mL) at 37 °C in a humidified incubator with 5% carbon dioxide. All reagents used for cell culture were purchased from Gibco® Invitrogen Corp. (Grand Island, NY, USA).
The concentration of nitrite in the cultured media was used as a measure of NO production. The assay was performed as previously described. RAW 264.7 cells were plated at a density of 5 × 10^5 per well in a 24-well culture plate and incubated in a 37 °C humidified incubator with 5% CO2 in air for 18 h. The incubated cells were pretreated with phenol-red-free medium containing various concentrations of tested compounds for 30 min, followed by 1 μg/mL of LPS treatment for 18 h more. Aliquots of the supernatant from each well (100 μL) were transferred to a 96-well plate, and nitrite concentration was measured using Griess reagent. After the Griess reaction, MTT solution (final concentration of 500 μg/mL) was added to each well and further incubated for 4 h at 37 °C. Each medium was discarded, and dimethyl sulfoxide was added to each well to dissolve generated formazan. The absorbance was measured at 570 nm, and percent survival was determined by comparison with LPS treated control group. All reagents used in the nitrite production measurement were purchased from Sigma-Aldrich (St. Louis, MO, USA).

[1] = RAW264.7, RAW 264.7 cells, compounds 30 min before LPS 1 μg/mL, 18 h, read-out: IC50, suppression of LPS-induced NO production

Row | SMILES | IC50 [1] [µM] | further results
1 | COc1cc(O)c2c(c1)C(=O)c1cc(C)c(O)c(-c3c(OC)cc(O)c4c3C(=O)C3=C(C4=O)[C@H](O)[C@@H](O)[C@@](C)(O)[C@H]3O)c1C2=O [Compound 6, alterporriol N] | 10.7 ± 0.6 | 
2 | COc1cc(O)c2c(c1-c1c(OC)cc(O)c3c1C(=O)c1cc(C)c(O)cc1C3=O)C(=O)C1=C(C[C@@H](O)[C@@](C)(O)[C@@H]1O)C2=O [Compound 4, alterporriol F] | 9.6 ± 1.6 | 
3 | COc1c(-c2cc(O)c3c(c2OC)C(=O)c2cc(C)c(O)cc2C3=O)cc(O)c2c1C(=O)C1=C(C2=O)C(O)C(O)C(C)(O)C1O (stereo not drawn) [Compound 1, alterporriol Z1] | 11.6 ± 0.7 | 
4 | COc1c(-c2cc(O)c3c(c2OC)C(=O)c2cc(C)c(O)cc2C3=O)cc(O)c2c1C(=O)C1=C(C2=O)[C@H](O)[C@@H](O)[C@@](C)(O)[C@H]1O (relative stereo) [Compound 2, alterporriol Z2] | 16.1 ± 1.1 | 
5 | COc1cc2c(c(O)c1-c1c(OC)cc(O)c3c1C(=O)C1=C(C3=O)[C@H](O)[C@@H](O)[C@@](C)(O)[C@@H]1O)C(=O)c1cc(O)c(C)cc1C2=O [Compound 5, alterporriol G] |  | IC50 (RAW264.7, read-out: IC50, suppression of LPS-induced NO production): 8.4 ± 0.4 µM
6 | COc1cc(O)c2c(c1)C(=O)c1cc(C)c(O)c(-c3c(OC)cc(O)c4c3C(=O)C3=C(C4=O)C(OC)C(O)C(C)(O)C3O)c1C2=O (stereo not drawn) [Compound 3, alterporriol Z3] |  | IC50, suppression of LPS-induced NO production (RAW 264.7 cells, compounds 30 min before LPS 1 μg/mL, 18 h): inactive
